Test results reported in patent US20140048061A1, “SYSTEM AND METHOD FOR ADMINISTERING ANESTHETICS WHILE PERFORMING CPR” (priority 2012, published 2014).
Marks after values point to notes of the source that are not given here.

What was measured:
[1] = test system: animals after cardiac arrest and ROSC; assay: Second cardiac arrest/CPR experiment, sevoflurane-treated (SPoC) vs control: left ventricle ejection fraction post ROSC; type: in vivo, pigs; conditions: *P<0.05 vs controls
Description: (§1) Another experiment was conducted with similar results. In that experiment, the hearts were subsequently removed from 5 animals from each group 15 minutes post-ROSC for mitochondrial function testing. Compared with the control group, all mitochondrial function tests were improved in the sevoflurane treated animals.
(§2) Table 1 illustrates the mitochondrial function for complex I substrates pyruvate (P, 10 mM) and malate (M, 10 mM) and complex II substrate succinate (Suc, 10 mM) in control hearts vs. sevoflurane-treated hearts (SPoC). LVEF refers to the left ventricle ejection fraction percentage at 12 min post return of spontaneous circulation (ROSC). RCI refers to the respiratory control index (state 3/state 4 respiration). ATP refers to adenosine triphosphate synthesis and Ca Ret refers to calcium retention capacity until mitochondrial transition pore opening. The asterisk (*) refers to P of less than 0.05.

[2] = test system: heart mitochondria (complex I and complex II substrates); assay: Mitochondrial function testing of hearts removed 15 minutes post-ROSC; type: in vivo, pigs
Description: as §1, §2

[3] = at 37° C.; cited from earlier work
[4] = test system: pigs experiencing induced cardiac arrest; assay: Pigs in induced VF cardiac arrest, untreated for 20 minutes, given inhaled isoflurane at the start of conventional manual CPR; type: in vivo
Description: As an example, Applicants conducted experiments on pigs experiencing induced cardiac arrest. Cardiac arrest was induced by generating ventricular fibrillation (VF) and pigs were left in untreated cardiac arrest for 20 minutes. At the initiation of conventional manual CPR, inhaled isoflurane at 4% was introduced via an anesthesia machine for a total of 3 minutes. The anesthesia was then turned off. After a total of 4 minutes of CPR the animals were then shocked back into a stable perfusing heart rhythm and the dose of isoflurane anesthesia was restarted at 1% to provide for anesthesia during the recovery period of the animals. […] Cardiac function based upon an assessment of the left ventricular (LV) ejection fraction (EF) after 1 and 4 hours was normal, as determined by echocardiography, and post resuscitation inotropic support was unnecessary due to the absence of hemodynamic instability. Two of the 4 animals had undetectable levels of markers of cardiac injury (creatinine phosphokinase MB and cardiac troponin [cTnI]), while 2 of the 4 animals had mild elevations of markers of cardiac injury (creatinine phosphokinase MB and cTnI) at 4 hours post ROSC (6.8±9 and 5.8±11 in ng/mL, respectively). […] Although the duration of untreated VF in the control animals was 5 minutes shorter, post ROSC left ventricular function was severely compromised (EF: 33±9%) and there was significant elevation of CKMB and cTnI at 4 hours post ROSC (26.5±13.7 and 31.2±14.3, p<0.05) compared to isoflurane treated animals resuscitated after 20 minutes of untreated VF. In the absence of anesthesia during CPR as described above, Applicants were been unable to resuscitate pigs after 20 minutes of untreated arrest with conventional CPR. These findings represent an important advance in the field of CPR.

[5] = pyruvate 10 mM and malate 10 mM
[6] = 4 hours post ROSC, 2 of 4 animals undetectable, 2 of 4 mild elevations

| SMILES | LVEF (%) 12 min Post ROSC [1] | all mitochondrial function tests compared with the control group ([2]; 5 animals per group, hearts removed 15 min post-ROSC) | RCI P/M (respiratory control index, state 3/state 4 respiration) ([2]; complex I substrates pyruvate 10 mM and malate 10 mM, hearts removed 15 min post-ROSC) | RCI Suc (respiratory control index) ([2]; complex II substrate succinate 10 mM, hearts removed 15 min post-ROSC) | ATP P/M (adenosine triphosphate synthesis) [2, 5] | Ca Ret P/M (calcium retention capacity until mitochondrial transition pore opening) [2, 5] | ATP Suc (adenosine triphosphate synthesis) ([2]; succinate 10 mM) | Ca Ret Suc (calcium retention capacity until mitochondrial transition pore opening) ([2]; succinate 10 mM) | blood gas partition coefficient [3] | cardiac troponin cTnI (marker of cardiac injury) [4, 6] [ng/mL] | creatinine phosphokinase MB (marker of cardiac injury) [4, 6] [ng/mL] | post resuscitation inotropic support ([4]; absence of hemodynamic instability) | cardiac function based on left ventricular (LV) ejection fraction (EF) ([4]; after 1 and 4 hours, by echocardiography) | shocks needed to achieve return of spontaneous circulation (ROSC) ([4]; all 4 animals, 20 min untreated VF, isoflurane 4% for 3 min, after 4 min CPR and one dose of 0.5 mg epinephrine) |
| --- | --- | --- | --- | --- | --- | --- | --- | --- | --- | --- | --- | --- | --- | --- |
| FCOC(C(F)(F)F)C(F)(F)F [sevoflurane] | 53 ± 16* % | improved | 11.4 ± 0.5* | 4.5 ± 0.2* | 148.5 ± 24.8* nm/min/mg | 318.8 ± 45.0* nm/min/mg | 132.3 ± 18.4* nm/min/mg | 474.0 ± 58.8* nm/min/mg | 0.65 | – | – | – | – | – |
| FC(F)OC(Cl)C(F)(F)F (centres unmarked) [isoflurane] | – | – | – | – | – | – | – | – | – | 5.8 ± 11 | 6.8 ± 9 | unnecessary | normal | 1-2 shocks |
